System: not listed separately
Experiment: Cytotoxicity against mouse J774A1 cells assessed as cell viability at 2.5 to 20 uM after 20 hrs by MTT assay
Format: cell-based
Conditions: j774.a1, 20 h

In the case of `COC(=O)/C=C\[C@]1(C)[C@H]2CC[C@@]3(C)[C@H](C4=CC(O)OC4=O)OC(=O)[C@H]4O[C@]43[C@]2(C)[C@]2(O)OC(C)(C)C(=O)[C@@]21O` (some centres not stated) [HARPERFOLIDE], the Activity is reported as “Non-toxic”.

System: not listed separately
Experiment: Antiinflammatory activity in mouse J774A1 cells assessed as reduction of LPS-induced nitric oxide production treated 2 hrs before LPS addition measured after 20 hrs by using Griess reagent
Format: functional, cell-based
Conditions: J774.A1

In order of falling IC50:
1. COC(=O)/C=C\[C@]1(C)[C@H]2CC[C@@]3(C)[C@H](c4ccoc4)OC(=O)[C@H]4O[C@]43[C@]2(C)[C@]2(O)OC(C)(C)C(=O)[C@@]21O [HARRISONIN]  135 µM
2. C[C@H]1c2ccoc2C[C@H]2[C@H]1CC[C@@H]1[C@]2(C)CCC[C@]1(C)C(=O)O [(+)-VOUACAPENIC ACID]  132 µM
3. CC1(C)OC(=O)C=C[C@]2(C)[C@H]3CC[C@@]4(C)[C@H](c5ccoc5)OC(=O)[C@H]5O[C@]54[C@]3(C)C(=O)C[C@@H]12 [OBACUNONE]  83.6 µM
4. COc1cc2c(c3oc(C)cc(=O)c13)C=CC(C)(C)O2  66.4 µM
5. COc1cc2oc(C)cc(=O)c2c(O)c1CC=C(C)C  56.4 µM
6. COC(=O)c1cc(=O)c2c(O)cc3c(c2o1)C=CC(C)(C)O3  55 µM
7. COc1cc(O)c2c(=O)cc(C)oc2c1CCC(C)(C)O [HARPERAMONE]  49.6 µM
8. CC(=O)c1c(O)c(CC=C(C)C)c(O)c2c1O[C@](C)(CCC=C(C)C)[C@H](OO)C2  31 µM
9. COc1ccc2c(c1)c(CC(=O)O)c(C)n2C(=O)c1ccc(Cl)cc1 [INDOMETHACIN]  28.4 µM
10. COC(=O)/C=C\[C@]1(C)[C@H]2CC[C@@]3(C)[C@H](C4=CC(O)OC4=O)OC(=O)[C@H]4O[C@]43[C@]2(C)[C@]2(O)OC(C)(C)C(=O)[C@@]21O (some centres not stated) [HARPERFOLIDE]  6.51 µM

System: J774.A1
Experiment: Antiinflammatory activity in mouse J774A1 cells assessed as reduction of LPS-induced iNOS expression after 6 to 12 hrs by Western blot analysis
Format: functional, cell-based
Conditions: not given

With `COC(=O)/C=C\[C@]1(C)[C@H]2CC[C@@]3(C)[C@H](C4=CC(O)OC4=O)OC(=O)[C@H]4O[C@]43[C@]2(C)[C@]2(O)OC(C)(C)C(=O)[C@@]21O` (some centres not stated) [HARPERFOLIDE] the Activity was “Dose-dependent effect”.
